Patent US11667675B2, “MASP inhibitory compounds and uses thereof” (Bayer Aktiengesellschaft, priority 2019, dated 2023)
Structures can show the parent of a compound that is named as a salt. Numbered stars: 1 amine (or outer) side, 2 acyl side, 3 side chain; on linkers, the order of the positions; unused ones are H or OH. Bridge positions count the residues as written; N and C are the ends. Square brackets hold non-standard residues; d marks the D form. Peptide text beside a SMILES is read from it. * marks the point of attachment. X1 = O=C(C1[C@H]2CCCC[C@H]2C[C@H]1C(=O)[*:2])[C@@H]1CCCN1[*:1]; Oic = O=C(O)[C@@H]1C[C@@H]2CCCC[C@@H]2N1; Pen = CC(C)(S)[C@H](N)C(=O)O; X2 = N[C@@H](CN*)C(=O)O; Sar = CNCC(=O)O

Legend:
Human C3-[…] = test: C3 deposition assay, human serum on mannan-coated plates; type: biochemical; conditions: average IC50, read-out: Human C3-DEPOSITION SERUM IC50
Procedure: (§1) 3. C3 Deposition Assay (Human, Rat, Mouse, Dog, Mini-Pig)
(§2) The C3 deposition assay was conducted essentially as described (reference). Multi well plates (Greiner-Nunc 384 Maxi Sorp #464718) were coated over night with Mannan from Saccharomyces cerevisiae (Sigma M7504, 10 μg/mL in 0.05 M carbonate-bicarbonate buffer, pH 9.6) at 4° C. Wells were washed three times with TBS and subsequently incubated for 2 hours with 50 μL of 1% bovine serum albumin (BSA) in Tris-buffered saline (TBS) at 37° C. in order to block non-specific binding. After this step and each of the following incubation steps wells were washed three times with C3 wash buffer (TBS; 0.05% Tween 20; 5 mM CaCl2). […] When appropriately developed the color reaction was stopped by addition of 25 μL of stop solution (Sigma S5814) and quantified on a photometer by measuring absorption at a wavelength of 450 nm. Antibodies were diluted in C3 wash buffer supplemented with 0.5% BSA.

rat MASP2 = target: T1, rat MASP2 (Rattus norvegicus, UniProt Q9JJS8); test: Biochemical rat MASP2 assay (FRET substrate); conditions: average IC50; recombinant rat MASP2, FRET substrate
T1 construct: Ig-kappa secretion signal (N, cleaved yes); made in house; host or cells: HEK293 (ATCC No. CRL-1573)
T1 sequence (Q9JJS8 296-443): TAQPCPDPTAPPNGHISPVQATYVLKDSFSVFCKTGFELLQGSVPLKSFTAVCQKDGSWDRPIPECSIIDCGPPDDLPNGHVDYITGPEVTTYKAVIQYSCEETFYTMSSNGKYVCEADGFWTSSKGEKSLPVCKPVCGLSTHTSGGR
T1 sequence (Q9JJS8 444-685): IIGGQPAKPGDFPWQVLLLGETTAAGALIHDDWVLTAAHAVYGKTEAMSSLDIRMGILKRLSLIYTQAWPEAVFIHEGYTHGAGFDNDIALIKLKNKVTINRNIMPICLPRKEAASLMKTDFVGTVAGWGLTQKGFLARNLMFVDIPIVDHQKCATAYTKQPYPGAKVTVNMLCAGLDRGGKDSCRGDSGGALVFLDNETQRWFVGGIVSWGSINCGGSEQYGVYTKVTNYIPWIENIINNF
Source text: 4. Biochemical Rat MASP-1 and MASP-2 Assay
4.1 Recombinant Expression and Protein Production of Recombinant Human and Rat MASP1 and MASP2 Active Proteases.
The MASP1 or MASP2 expression vectors were transfected into the HEK293 (ATCC No. CRL-1573) cell line using Lipofectamine LTX® Reagent (Thermo-Fischer), as described by the manufacturer. The mature form of the recombinant rat MASP1 and MASP2 proteases were secreted into the culture medium. The MASP1 and MASP2 proteins were purified from the conditioned media by affinity chromatography on Ni-NTA Superflow resin (Qiagen) as described by the manufacturer.
4.3 Biochemical Rat MASP2 Assay.
Recombinant rat MASP2 enzyme produced in the HEK 293 cells was diluted in the reaction buffer (50 mM HEPES pH 8,0; 100 mM NaCl; 0.01% CHAPS; 0.5 mM Gluthathione) to the concentration of 20 nM and 25 μl was transferred into each single well of 384-well white microtiter plate (Greiner Bio One 781075). 1 μl of the inhibitor compound solution (dissolved in DMSO, at the corresponding concentration) or pure DMSO as a control was added to the same wells. The enzymatic reaction was initiated by addition of 25 μl of 30 μM solution of the FRET substrate Abz-IEGRTSED-(Lys)Dnp-NH2 (SEQ ID NO: 9); (ABZ—2-aminobenzoyl; DNP_2,4-dinitrophenyl; custom synthesis by Jerini Peptide Technologies, Berlin) in the reaction buffer. The microtiter plate was incubated for 60-120 min at the temperature of 32 C. The increase of fluorescence intensity was measured in appropriate fluorescence plate reader (e.g. TECAN Ultra) using excitation wavelength of 320 nm and emission wavelength of 420 nm. IC50 values were calculated from percentage of inhibition of rat […] activity as a function of test compound concentration.

rat C3-[…] = test: C3 deposition assay, rat serum on mannan-coated plates; type: biochemical; conditions: average IC50
Procedure: as §1, §2

SMILES | IC50 (Human C3-[…]) [nM] | IC50 (rat MASP2) [nM] | IC50 (rat C3-[…]) [nM]
CC[C@H](C)[C@H](NC(=O)CNC)C(=O)N[C@H]1CSSC(C)(C)[C@@H](C(=O)N[C@H](C(=O)N2CCC[C@H]2C(=O)NC[C@H](N)C(=O)O)[C@@H](C)CC)NC(=O)[C@H]([C@@H](C)CC)NC(=O)[C@@H]2C[C@@H]3CCCC[C@@H]3N2C(=O)[C@@H]2CCCN2C(=O)[C@H](CC(C)C)NC(=O)[C@H](CO)NC(=O)[C@H](CCCNC(=N)N)NC(=O)[C@H](CO)NC1=O [Example 467] (H-[Sar]ICSRSLP[Oic]I[Pen]IP-X2; disulfide 3-11) | 41.5 | 70 | –
CC[C@H](C)[C@H](NC(=O)CNC)C(=O)N[C@H]1CSSC(C)(C)[C@@H](C(=O)N[C@H](C(=O)N2CCC[C@H]2C(=O)N[C@@H](CC(=O)O)C(=O)N[C@@H](CC(=O)O)C(=O)O)[C@@H](C)CC)NC(=O)[C@H]([C@@H](C)CC)NC(=O)[C@@H]2C[C@@H]3CCCC[C@@H]3N2C(=O)[C@@H]2CCCN2C(=O)[C@H](CC(C)C)NC(=O)[C@H](CO)NC(=O)[C@H](CCCNC(=N)N)NC(=O)[C@H](CO)NC1=O [Example 466, ((N-Me)G)-IC+SRSLP-(Oic)-I-(Pen)+IPDD-OH] (H-[Sar]ICSRSLP[Oic]I[Pen]IPDD-OH; disulfide 3-11) | 71.6 | 72 | –
CC[C@H](C)[C@H](NC(=O)[C@H](C)N)C(=O)N[C@H]1CSSC[C@@H](C(=O)N[C@H](C(=O)N2CCC[C@H]2C(=O)N[C@@H](CC(=O)O)C(N)=O)[C@@H](C)CC)N(C)C(=O)[C@H]([C@@H](C)CC)NC(=O)[C@@H]2C[C@@H]3CCCC[C@@H]3N2C(=O)[C@@H]2CCCN2C(=O)[C@H](CC(C)C)NC(=O)[C@H](CO)NC(=O)[C@H](CCCNC(=N)N)NC(=O)[C@H](CO)NC1=O [Example 185, AIC+SRSLP-(Oic)-I-((N-Me)C)+IPD-NH2] | 6.74 | 10.9 | 236
[2H][C@@H]1[C@H]([2H])CN2C(=O)[C@H](CC(C)C)NC(=O)[C@H](CO)NC(=O)[C@H](CCCNC(=N)N)NC(=O)[C@H](CO)NC(=O)[C@@H](NC(=O)[C@@H](NC(=O)[C@H](C)N)[C@@H](C)CC)CSSC(C)(C)[C@@H](C(=O)N[C@H](C(=O)N3CCC[C@H]3C(=O)N[C@@H](CC(=O)O)C(=O)O)[C@@H](C)CC)NC(=O)[C@H]([C@@H](C)CC)NC(=O)[C@@H]3C[C@@H]4CCCC[C@@H]4N3C(=O)[C@H]12 [Example 142, N-[(1R,2S,6S,9S,12S,15S,18R,23R,26S,28aS,35aS)-18-[(L-alanyl-L-isoleucyl)amino]-26-[(2S)-butan-2-yl]-12-(3-carbamimidamidopropyl)-9,15-bis(hydroxymethyl)-22,22-dimethyl-6-(2-methylpropyl)-5,8,11,14,17,25,28,35-octaoxo(1,2-^2H2)dotriacontahydro-1H,5H,22H-pyrrolo[2′,1′:13,14][1,2,5,8,11,14,17,20,23,26]dithiaoctaazacyclononacosino[11,10-a]indole-23-carbonyl]-L-isoleucyl-L-prolyl-L-aspartic Acid] | 12.4 | 17.1 | 472
CC[C@H](C)[C@H](NC(=O)CNC)C(=O)N[C@H]1CSSC(C)(C)[C@@H](C(=O)N[C@H](C(=O)N2CCC[C@H]2C(N)=O)[C@@H](C)CC)NC(=O)[C@H]([C@@H](C)CC)NC(=O)[C@@H]2C[C@@H]3CCCC[C@@H]3N2C(=O)[C@@H]2CCCN2C(=O)[C@H](CC(C)C)NC(=O)[C@H](CO)NC(=O)[C@H](CCCNC(=N)N)NC(=O)[C@H](CO)NC1=O [Example 109, ((N-Me)G)-IC+SRSLP-(Oic)-I-(Pen)+IP-NH2] (H-[Sar]ICSRSLP[Oic]I[Pen]IP-NH2; disulfide 3-11) | 135 | 42 | –
CC[C@H](C)[C@H](NC(=O)CNC)C(=O)N[C@H]1CSSC(C)(C)[C@@H](C(=O)N[C@H](C(=O)N2CCC[C@H]2C(N)=O)[C@@H](C)CC)NC(=O)[C@H]([C@@H](C)CC)NC(=O)[C@@H]2C[C@@H]3CCCC[C@@H]3C2C(=O)[C@@H]2CCCN2C(=O)[C@H](CC(C)C)NC(=O)[C@H](CO)NC(=O)[C@H](CCCNC(=N)N)NC(=O)[C@H](CO)NC1=O (stereo partly shown) [Example 67, ((N-Me)G)-IC+SRSLP-(Oic)-I-(Pen)+IP-NH2 (HCl Salt)] (H-[Sar]ICSRSL[X1]I[Pen]IP-NH2; disulfide 3-10) | 121 | 36 | –
CC[C@H](C)[C@H](NC(=O)[C@H](C)NC)C(=O)N[C@H]1CSSC(C)(C)[C@@H](C(=O)N[C@H](C(=O)N2CCC[C@H]2C(N)=O)[C@@H](C)CC)NC(=O)[C@H]([C@@H](C)CC)NC(=O)[C@@H]2C[C@@]3(CN2C(=O)[C@@H]2CCCN2C(=O)[C@@H](CC(C)(C)C)NC(=O)[C@H](CO)NC(=O)[C@H](CCCNC(=N)N)NC(=O)[C@H](CO)NC1=O)CC3(F)F (single isomer, unassigned; enantiomer 1) [Example 443] | 25.2 | 4.7 | –
